Data from US20240018115A1, “ALLOSTERIC CHROMENONE INHIBITORS OF PHOSPHOINOSITIDE 3-KINASE (PI3K) FOR THE TREATMENT OF DISEASE” (Petra Pharma Corporation, priority 2022, published 2024).

Molecular target: T1, PI3K-Alpha kinase H1047R mutant (Homo sapiens, UniProt P42336, H1047R)
T1 construct: host or cells: MDA-MB-453
Test: PI3K-Alpha Kinase (PIK3CA) Activity, H1047R Mutant In Vitro Cell Based Assay (MDA-MB-453 cells, AlphaLisa SureFire Ultra)
Conditions: 0% FBS, 3 hours treatment, relative IC50
Method: PI3K-Alpha Kinase (PIK3CA) Activity, H1047R Mutant In Vitro Cell Based Assay and Determining IC50 Values for Inhibitors
The MDA-MB-453 (ATCC-HTB-131) cell line was obtained from the American Type Culture Collection (Manassas, VA). Cells were maintained in Dulbecco's Modified Eagle Media (DMEM, Gibco 11965-092) supplemented with 10% Fetal Bovine Serum, heat inactivated (FBS HI, Gibco 10082-147), 1× non-essential amino acids (NEAA, Gibco 11140-050), and 1 mM sodium pyruvate (Gibco 11360-070). Cultures were maintained in a humidified incubator at 37° C. under 5% CO2/95% air.
For compound testing in 0% FBS, MDA-MB-453 cells were seeded at a density of 1.5×10^4 cells per well in white 384-well plates in 20 μl of Minimum Essential Media (MEM) assay media with 1×NEAA, 1 mM sodium pyruvate, and 1 μg/mL human insulin (Sigma I9278). Compounds dissolved in 10 mM stock solutions in DMSO were serially diluted 1:3 in DMSO to generate a 10-point dilution series and plated using an acoustic liquid handler system (Echo 550 Series Liquid Handler, Labcyte). A 5× intermediate compound dilution plate in MEM with 1×NEAA and 1 mM sodium pyruvate (150 μM starting compound concentration in 1.5% DMSO) was then prepared. Five μl of the intermediate serially diluted compounds were added to the cell plate to final concentrations ranging from […] in 0.3% DMSO. 0.3% DMSO alone was used to establish the maximum (MAX) signal and GDC-0032 at a final concentration of 1 μM was used as a reference compound for the minimum (MIN) signal. After 3 hours treatment, the medium was removed, and the cells lysed in 10 μL of 1× SureFire Lysis buffer with shaking for 10 minutes at room temperature. The Acceptor Mix (Reaction Buffer 1+Reaction Buffer 2+Activation Buffer+SureFire Ultra Acceptor Beads) was prepared by diluting Activation buffer 25-fold in combined Reaction Buffer 1 and Reaction Buffer 2. The Acceptor beads were diluted 50-fold in the combined Reaction Buffers. Five μL of Acceptor Mix was added to each well, the plate was sealed and covered with foil and incubated for 1 hour at room temperature. The Donor Mix (dilution buffer+SureFire Ultra Donor Beads) was prepared by diluting Donor Beads 50-fold in dilution buffer. Five μL of the Donor Mix was added to each well and the plate sealed and covered with foil and incubated for 1 hour at room temperature in the dark. The plates were read on a Neo2 plate reader instrument from Biotek using standard AlphaLisa settings. Compounds were tested in duplicate and the average % inhibition at each compound concentration was used to generate a single dose response curve. The data were processed using the Genedata-Screener tool. Relative IC50 values were determined using luminescence units by calculating percent inhibition with respect to the in-plate “MIN” (GDC-0032 reference control) and “MAX” (DMSO) controls. The data was analyzed using a 4-parameter nonlinear logistic equation (four-parameter logistic concentration-response curve):
Y=bottom+[(top−bottom)/1+(X/IC50)slope]
where Y=% inhibition, X=concentration of inhibitor, bottom=minimum value of y attained by curve-fit, top=maximum value of y attained by curve-fit and slope=steepness of curve at the IC50.
% Inhibition=[(signal at X−median Min)/(median Max−median Min)]×100
IC50: concentration of compound that reduces a given response (ligand binding, enzyme response) by 50%. Relative IC50: concentration giving half the compound's maximum response.

T1 sequence (P42336 whole entry H1047R): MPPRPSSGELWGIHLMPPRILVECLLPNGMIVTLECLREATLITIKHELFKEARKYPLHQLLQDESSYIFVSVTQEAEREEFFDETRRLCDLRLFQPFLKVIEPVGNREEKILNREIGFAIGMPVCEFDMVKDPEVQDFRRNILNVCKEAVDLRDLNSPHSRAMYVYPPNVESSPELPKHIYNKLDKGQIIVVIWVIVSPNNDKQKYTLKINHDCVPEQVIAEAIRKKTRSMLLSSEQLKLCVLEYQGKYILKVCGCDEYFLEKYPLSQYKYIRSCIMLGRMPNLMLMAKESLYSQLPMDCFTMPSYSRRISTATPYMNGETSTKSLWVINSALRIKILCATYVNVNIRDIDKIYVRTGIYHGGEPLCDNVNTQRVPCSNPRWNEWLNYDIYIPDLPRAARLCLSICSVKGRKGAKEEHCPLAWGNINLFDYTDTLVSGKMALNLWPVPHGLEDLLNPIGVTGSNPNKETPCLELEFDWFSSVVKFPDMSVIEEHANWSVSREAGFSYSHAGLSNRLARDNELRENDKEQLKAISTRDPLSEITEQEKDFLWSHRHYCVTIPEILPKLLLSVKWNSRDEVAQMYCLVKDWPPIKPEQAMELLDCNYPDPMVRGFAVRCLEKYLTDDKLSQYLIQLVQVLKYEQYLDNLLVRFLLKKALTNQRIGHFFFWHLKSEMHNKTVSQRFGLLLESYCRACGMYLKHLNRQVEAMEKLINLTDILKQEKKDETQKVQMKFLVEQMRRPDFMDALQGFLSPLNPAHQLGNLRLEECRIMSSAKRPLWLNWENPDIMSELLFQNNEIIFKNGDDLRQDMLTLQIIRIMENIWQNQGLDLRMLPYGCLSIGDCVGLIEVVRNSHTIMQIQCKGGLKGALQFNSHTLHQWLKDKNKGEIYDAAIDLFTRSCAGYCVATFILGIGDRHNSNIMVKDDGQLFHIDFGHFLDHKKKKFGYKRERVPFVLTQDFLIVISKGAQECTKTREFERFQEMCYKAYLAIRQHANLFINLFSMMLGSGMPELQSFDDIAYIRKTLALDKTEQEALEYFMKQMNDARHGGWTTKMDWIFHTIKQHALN
T1 sequence (P27986 whole entry partner): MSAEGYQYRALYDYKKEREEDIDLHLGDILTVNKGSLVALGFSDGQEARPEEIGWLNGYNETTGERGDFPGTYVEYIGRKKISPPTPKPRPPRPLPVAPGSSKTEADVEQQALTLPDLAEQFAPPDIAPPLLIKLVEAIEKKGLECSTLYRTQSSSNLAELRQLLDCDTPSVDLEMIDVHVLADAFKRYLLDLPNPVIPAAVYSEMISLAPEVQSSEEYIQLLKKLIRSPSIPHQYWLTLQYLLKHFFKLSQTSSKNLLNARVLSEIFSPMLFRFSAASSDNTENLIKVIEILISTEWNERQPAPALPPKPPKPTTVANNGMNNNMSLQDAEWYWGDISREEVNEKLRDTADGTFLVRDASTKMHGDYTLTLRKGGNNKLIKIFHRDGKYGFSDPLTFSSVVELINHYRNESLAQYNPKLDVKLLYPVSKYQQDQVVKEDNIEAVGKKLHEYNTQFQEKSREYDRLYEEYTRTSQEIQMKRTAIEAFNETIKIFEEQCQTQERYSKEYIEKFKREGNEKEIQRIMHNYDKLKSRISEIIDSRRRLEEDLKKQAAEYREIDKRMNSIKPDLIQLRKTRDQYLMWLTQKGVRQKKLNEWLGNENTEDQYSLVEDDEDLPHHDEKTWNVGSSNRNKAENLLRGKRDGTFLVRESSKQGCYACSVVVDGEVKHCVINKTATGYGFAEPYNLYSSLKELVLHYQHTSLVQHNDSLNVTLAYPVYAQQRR

IC50 [nM] | SMILES
< 500 | Cc1cc(C(C)Nc2ccccc2-n2cnnn2)c2oc(-c3ccccc3)c(C)c(=O)c2c1 (single isomer, unassigned) [Example 24A, 3,6-Dimethyl-2-phenyl-8-[1-[2-(tetrazol-1-yl)anilino]ethyl]chromen-4-one]
< 1000 | Cc1cc([C@@H](C)Nc2ccccc2-c2ncco2)c2oc(-c3ccccc3)c(C)c(=O)c2c1 [Example 65A, 3,6-Dimethyl-8-[(1R)-1-(2-oxazol-2-ylanilino)ethyl]-2-phenyl-chromen-4-one]
< 500 | Cc1cc([C@@H](C)Nc2ccc(Cl)nc2C)c2oc(-c3cccnc3)c(C)c(=O)c2c1 [Example 10B, 8-[(1R)-1-[(6-Chloro-2-methyl-3-pyridyl)amino]ethyl]-3,6-dimethyl-2-(3-pyridyl)chromen-4-one]
< 500 | Cc1cc([C@@H](C)Nc2ccc(Cl)nc2C)c2oc(-c3ccc4cn[nH]c4c3)c(C)c(=O)c2c1 [Example 78B, 8-[(1R)-1-[(6-Chloro-2-methyl-3-pyridyl)amino]ethyl]-2-(1H-indazol-6-yl)-3,6-dimethyl-chromen-4-one]
< 500 | Cc1cc(C(C)Nc2ccc(Cl)nc2-c2ccccc2F)c2oc(-c3cccnc3)c(C)c(=O)c2c1 (single isomer, unassigned) [Example 219C, 8-[1-[[6-Chloro-2-(2-fluorophenyl)-3-pyridyl]amino]ethyl]-3,6-dimethyl-2-(3-pyridyl)chromen-4-one]
< 1000 | Cc1cc([C@@H](C)Nc2ccc(Cl)cc2)c2oc(-c3ccccc3)c(C)c(=O)c2c1 [Example 12B, 8-[(1R)-1-(4-Chloroanilino)ethyl]-3,6-dimethyl-2-phenyl-chromen-4-one]
< 500 | Cc1cc([C@@H](C)Nc2ccc(Cl)nc2)c2oc(-c3ccccc3)c(C)c(=O)c2c1 [Example 14B, 8-[(1R)-1-[(6-Chloro-3-pyridyl)amino]ethyl]-3,6-dimethyl-2-phenyl-chromen-4-one]
< 500 | Cc1cc([C@@H](C)Nc2ccccc2-c2cncn2C)c2oc(-c3ccccc3)c(C)c(=O)c2c1 [Example 68A, 3,6-Dimethyl-8-[(1R)-1-[2-(3-methylimidazol-4-yl)anilino]ethyl]-2-phenyl-chromen-4-one]
< 500 | Cc1cc([C@@H](C)Nc2cccnc2C(=O)N[C@@H]2CCOC2)c2oc(-c3ccccc3)c(C)c(=O)c2c1 [Example 178A, 3-[[(1R)-1-(3,6-Dimethyl-4-oxo-2-phenyl-chromen-8-yl)ethyl]amino]-N-[(3R)-tetrahydrofuran-3-yl]pyridine-2-carboxamide]
< 500 | Cc1cc(C(C)Nc2ccccc2S(N)(=O)=O)c2oc(-c3ccccc3)c(C)c(=O)c2c1 (centres unmarked) [Example 32A, 2-[1-(3,6-Dimethyl-4-oxo-2-phenyl-chromen-8-yl)ethylamino]benzenesulfonamide]
< 500 | Cc1cc([C@@H](C)Nc2cccnc2C)c2oc(-c3cccnc3)c(C)c(=O)c2c1 [Example 9B, 3,6-Dimethyl-8-[(1R)-1-[(2-methyl-3-pyridyl)amino]ethyl]-2-(3-pyridyl)chromen-4-one]
< 500 | CNC(=O)c1ccccc1N[C@H](C)c1cc(C)cc2c(=O)c(C)c(-c3cccnc3)oc12 [Example 83A, 2-[[(1R)-1-[3,6-Dimethyl-4-oxo-2-(3-pyridyl)chromen-8-yl]ethyl]amino]-N-methyl-benzamide]
< 500 | Cc1cc([C@@H](C)Nc2ccccc2-c2cncs2)c2oc(-c3cccnc3)c(C)c(=O)c2c1 [Example 72A, 3,6-Dimethyl-2-(3-pyridyl)-8-[(1R)-1-(2-thiazol-5-ylanilino)-ethyl]chromen-4-one]
< 500 | Cc1cc([C@@H](C)Nc2ccccc2CO)c2oc(-c3cccnc3)c(C)c(=O)c2c1 [Example 224C, 8-[(1R)-1-[2-(Hydroxymethyl)anilino]ethyl]-3,6-dimethyl-2-(3-pyridyl)chromen-4-one]
